Experimental data taken from patent US5814612A, “Retinol derivatives and uses thereof” (priority 1992, dated 1998).
Like-named read-outs stand apart in the source and are kept apart here.

How the values were obtained:
[1] = test system: CD8^+ T lymphocytes; assay: Proliferation of anti-CD3 plus IL-2 activated CD8+ T lymphocytes; assay type: cell-based, BALB/c mouse
Excerpt: Growth curves of lymph node T cells depleted of antigen-presenting cells (FIG. 17A) with and without 10^-6 M retinol at 2×10^5 and 5×10^4 cells/well. (FIG. 17B) Dose-responses elicited by different retinoids in cultures of lymph node T cells depleted of antigen-presenting cells. Also shown are the growth curves of CD4^+ (FIG. 17C) and CD8^+ T lymphocytes (FIG. 17D) in the presence of either retinol, 14HRR, human serum or in their absence.
T lymphocytes, purified as described, 5×10^4 /well, were activated with immobilized anti-CD3 antibody in ITLB medium. The indicated amounts of retinoids or human serum were added at initiation of cultures. […] 14HRR was added every 12 hours. DNA synthesis was measured by a 4 hour pulse with tritiated thymidine. SDs were ≤17%.
Mature T cells were obtained from pooled intestinal, axillary, inguinal and submandibular lymph nodes of 4 to 10-week-old BALB/c mice. To fractionate cells into CD4 and CD8 subsets and at the same time remove APC, a combination of adherence and complement lysis was used as follows:
The cell suspension in a volume of 2 ml was applied to a nylon wool column (40) (0.6 g of washed nylon fibers in the barrel of a 10 ml syringe) and incubated at 37° C. for 40 min. […] The success of the enrichment procedures was monitored cytofluorimetrically using FITC-conjugated anti-CD8 and PE-conjugated anti-CD4. […]

[2] = Stability of retinoids in serum-free tissue culture medium; assay type: in vitro ADME
[3] = test system: immediate early genes in fibroblasts; assay: Expression of immediate early genes in fibroblasts; assay type: cell-based; details: work to be published elsewhere
[4] = test system: SK3886; assay: Retinol metabolism, SK3886; assay type: in vitro ADME
Protocol: (§1) Legend: 2.5×10^6 cells were grown overnight in 5 ml RPMI/10% FBS. The FBS was preincubated at room temperature with 14.4 uCi [^3 H] retinol (NEN) for 4h. The cell pellet was washed twice with PBS. The retinoid were extracted according to MClean et al. 90 and separated on an analytical c18 reverse phase column according to FIG. 7. The DPM were determined using an on-line scintillation counter.

[5] = test system: SK--N--SH; assay: Retinol metabolism, SK--N--SH; assay type: in vitro ADME, human
Protocol: as §1

[6] = test system: SLA; assay: Retinol metabolism, SLA; assay type: in vitro ADME, mouse
Protocol: as §1

[7] = test system: Ket; assay: Retinol metabolism, Ket; assay type: in vitro ADME, human
Protocol: as §1

[8] = test system: thymocytes; assay: Proliferation of Con A stimulated thymocytes in serum-free ITLB medium; assay type: cell-based, BALB/c mouse; details: 3×10^-6 M retinol, Con A 0.5 μg/ml
Protocol: Purified thymocytes (5×10^5 cells/well) were stimulated by TCR crosslinking with immobilized anti-CD3e antibody (FIG. 15A) or 0.4 μg/ml Con A (FIG. 15B) in serum-free ITLB medium. The indicated amounts of retinoids were added either once at the beginning of the experiment (marked as "1×") or every 12 hours thereafter (marked as "6×"). DNA synthesis was measured after 72 hours by tritiated thymidine uptake as described.
Thymuses of 3 to 6-week-old BALB/c mice were teased in serum-free RPMI medium supplemented with 1% BSA, 10^-6 M linoleic acid and antibiotics. […] Cell viability was evaluated by trypan blue dye exclusion. To determine the extent of depletion of accessory cells, samples were stained with FITC-conjugated anti-Fc receptor antibody and analyzed by flow cytometry on a FACScan instrument (Becton Dickinson). No FcR-bearing cells were detected by this procedure.
Cells were cultured in serum-free medium, referred to as ITLB, containing RPMI 1640 supplemented with 8×10^-7 M insulin (5 μg/ml), 7×10^-8 M transferrin (5 μg/ml), 2×10^-6 M linoleic acid, 2×10^-6 M delipidated BSA (0.12 mg/ml), 2 mM L-glutamine, 1 mM sodium pyruvate and antibiotics. […] The optimal concentration for stimulation of T cells was determined for each batch of anti-CD3 mAb and Con A. The optimal range of Con A was particularly narrow in serum-free medium (0.5-0.2 μg/ml) and varied with the cell density used. […]

[9] = test system: P388D.1; assay: Retinol metabolism, P388D.1; assay type: in vitro ADME, mouse
Protocol: as §1

[10] = test system: EL-4; assay: Retinol metabolism, EL-4; assay type: in vitro ADME, mouse
Protocol: as §1

In the case of `CC(C=CC=C(C)C(O)CO)=CC=C1C(C)=CCCC1(C)C` (stereo not drawn) [14HRR, 14-hydroxy-4,14-retro-retinol], the “response of CD8+ subset to anti-CD3 plus IL-2” value [1] is reported as “responded to the activating signal”, the half-life [2] is reported as roughly 4 h and the half-life ([2]; tissue culture medium, data not shown) is reported as 4 h. For the same compound, the “expression of immediate early genes” value [3] was “facilitates the expression of immediate early genes in fibroblasts”.
With `CC1=C(/C=C/C(C)=C/C=C/C(C)=C/CO)C(C)(C)CCC1` [retinol, all-trans retinol] the “Ester (% of taken up retinol)” value [4] was 2%, the “P3 (% of taken up retinol)” value [4] was 3% and the Total cts. [4] was 4.7 × 10^5 cts. For the same compound, the “Ester (% of taken up retinol)” value [5] was 25%, the “P3 (% of taken up retinol)” value [5] was 0.9% and the “Retinol (% of taken up retinol)” value [5] was 56%. The Total cts. [5] was 2.0 × 10^5 cts, the “Ester (% of taken up retinol)” value [6] was 9% and the “P3 (% of taken up retinol)” value [6] was 3%. The Total cts. [6] was 6.1 × 10^5 cts, the “Ester (% of taken up retinol)” value [7] was 41% and the “P3 (% of taken up retinol)” value [7] was 3%. The Total cts. [7] was 4.6 × 10^5 cts, the “Con A stimulated thymocyte proliferation” value [8] was “growing exponentially” and the “Ester (% of taken up retinol)” value [9] was 26%. For the same compound, the “P3 (% of taken up retinol)” value [9] was 0.5%, the Total cts. [9] was 1.4 × 10^5 cts and the “Ester (% of taken up retinol)” value [10] was 44%. For the same compound, the “P3 (% of taken up retinol)” value [10] was 5% and the Total cts. [10] was 2.8 × 10^5 cts.
